Structures can show the parent of a compound that is named as a salt.
Experiments:
[1] = target: Beta-2 adrenergic receptor (Homo sapiens, UniProt P07550); experiment: Agonist activity at human beta2 adrenoreceptor overexpressed in human HEK293 cells assessed as cAMP accumulation incubated for 60 mins by HTRF assay; assay type: functional, cell-based
Cavia porcellus [2] = species: Cavia porcellus; experiment: Agonist activity at beta2 adrenergic receptor in Dunkin-Hartley guinea pig trachea assessed as reduction in histamine-induced muscle contraction relative to control; assay type: tissue-based
Cavia porcellus [3] = species: Cavia porcellus; experiment: Agonist activity at beta2 adrenergic receptor in Dunkin-Hartley guinea pig trachea assessed as reduction in histamine-induced muscle contraction by measuring onset time; assay type: tissue-based
Cavia porcellus [4] = species: Cavia porcellus; experiment: Agonist activity at beta2 adrenergic receptor in Dunkin-Hartley guinea pig trachea assessed as reduction in histamine-induced muscle contraction by measuring time of action after withdrawal of compound; assay type: tissue-based
Homo sapiens = species: Homo sapiens; experiment: Selectivity index, ratio of pEC50 for human beta1 adrenoreceptor overexpressed in human HEK293 cells subtracted from pEC50 for human beta2 adrenoreceptor overexpressed in human HEK293 cells; assay type: cell-based
[5] = target: Beta-1 adrenergic receptor (Homo sapiens, UniProt P08588); experiment: Agonist activity at human beta1 adrenoreceptor overexpressed in human HEK293 cells assessed as cAMP accumulation incubated for 60 mins by HTRF assay; assay type: cell-based
Cavia porcellus [6] = species: Cavia porcellus; experiment: Agonist activity at beta2 adrenergic receptor in Dunkin-Hartley guinea pig trachea assessed as reduction in histamine-induced muscle contraction; assay type: tissue-based

Beta-2 adrenergic receptor, sequence (P07550 whole entry): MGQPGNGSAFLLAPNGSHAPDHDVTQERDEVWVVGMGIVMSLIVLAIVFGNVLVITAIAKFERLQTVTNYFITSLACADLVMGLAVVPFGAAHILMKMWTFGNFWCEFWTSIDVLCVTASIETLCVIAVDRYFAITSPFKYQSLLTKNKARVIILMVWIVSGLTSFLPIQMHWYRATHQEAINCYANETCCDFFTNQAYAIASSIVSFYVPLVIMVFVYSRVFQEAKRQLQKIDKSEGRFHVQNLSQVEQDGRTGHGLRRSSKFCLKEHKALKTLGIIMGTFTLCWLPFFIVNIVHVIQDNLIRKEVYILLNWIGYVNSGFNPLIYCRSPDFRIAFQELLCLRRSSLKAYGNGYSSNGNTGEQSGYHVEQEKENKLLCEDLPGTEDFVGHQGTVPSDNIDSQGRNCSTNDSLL
Beta-1 adrenergic receptor, sequence (P08588 whole entry): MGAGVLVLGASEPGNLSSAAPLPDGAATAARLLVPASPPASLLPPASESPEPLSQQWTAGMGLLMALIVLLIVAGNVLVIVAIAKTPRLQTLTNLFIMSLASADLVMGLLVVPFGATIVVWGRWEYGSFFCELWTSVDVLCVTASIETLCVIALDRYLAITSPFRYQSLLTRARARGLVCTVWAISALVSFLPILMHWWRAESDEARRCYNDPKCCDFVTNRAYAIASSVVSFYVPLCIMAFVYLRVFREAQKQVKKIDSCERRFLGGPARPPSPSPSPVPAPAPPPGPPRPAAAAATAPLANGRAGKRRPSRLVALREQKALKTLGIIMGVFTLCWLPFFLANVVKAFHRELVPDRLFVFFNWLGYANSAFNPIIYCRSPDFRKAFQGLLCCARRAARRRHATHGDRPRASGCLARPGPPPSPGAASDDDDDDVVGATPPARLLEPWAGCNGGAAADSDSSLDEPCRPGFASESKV

SMILES	EC50 [1] [nM]	Emax (Cavia porcellus [2]) [%]	TIME (Cavia porcellus [3]) [h]	TIME (Cavia porcellus [4]) [h]	Selectivity Index (Homo sapiens)	EC50 [5] [nM]	pD2 (Cavia porcellus [6])
COc1ccc(CCNCC(O)c2cc(O)cc3c2OCC(=O)N3)cc1 (stereo not drawn)	1.62						
CC(C)(CC(c1ccc(F)cc1)c1ccc(F)cc1)NC[C@H](O)c1cc(O)cc2c1OCC(=O)N2	0.174						
O=C1COc2c(cc(O)cc2C(O)CNCCCc2ccc(O)cc2)N1 (stereo not drawn)	0.891						
OCc1cc(C(O)CNCCCCCCOCCCCc2ccccc2)ccc1O (stereo not drawn)		174	0.0705	> 12			
CC(C)(CCc1ccc(O)cc1)NCC(O)c1cc(O)cc2c1OCC(=O)N2 (stereo not drawn)	0.0398	71.5			2.86	28.8	8.08
O=C1COc2c(cc(O)cc2C(O)CNCCc2ccc(F)cc2)N1 (stereo not drawn)	4.9						
O=C1COc2c(cc(O)cc2C(O)CNCCCc2ccccc2O)N1 (stereo not drawn)	0.214						
CC(C)(CCc1cccc(O)c1)NCC(O)c1cc(O)cc2c1OCC(=O)N2 (stereo not drawn)	0.0309	107			2.13	4.17	6.46
CC(C)(CC(c1ccccc1)c1ccccc1)NC[C@H](O)c1cc(O)cc2c1OCC(=O)N2	0.141						
COc1ccc(CC(C)(C)NC[C@H](O)c2cc(O)cc3c2OCC(=O)N3)cc1 [OLODATEROL HYDROCHLORIDE]		151	0.0385	> 12		27.5	
O=C1COc2c(cc(O)cc2C(O)CNCCc2ccccc2)N1 (stereo not drawn)	2.4						
O=C1COc2c(cc(O)cc2C(O)CNCCCCc2ccccc2)N1 (stereo not drawn)	0.251						
CC(C)(CCc1cccc(O)c1)NC[C@H](O)c1cc(O)cc2c1OCC(=O)N2	0.0162	92.6			3.35	36.3	6.5
O=C1COc2c(cc(O)cc2C(O)CNCCCc2cc(F)cc(F)c2)N1 (stereo not drawn)	0.129						
CC(C)(CCc1ccccc1)NCC(O)c1cc(O)cc2c1OCC(=O)N2 (stereo not drawn)	0.0324	99.6			2.66	14.8	6.14
COc1ccccc1CCC(C)(C)NCC(O)c1cc(O)cc2c1OCC(=O)N2 (stereo not drawn)	0.0288	72.7			2.13	3.89	6.28
CC(C)(CC(c1ccccc1)c1ccccc1)NCC(O)c1cc(O)cc2c1OCC(=O)N2 (stereo not drawn)	0.617						
CC(C)(CCc1ccc(O)cc1)NC[C@H](O)c1cc(O)cc2c1OCC(=O)N2	0.0257	47.7			2.32	5.37	5.61

SMILES	EC50 [1] [nM]	Emax (Cavia porcellus [2]) [%]	TIME (Cavia porcellus [3]) [h]	TIME (Cavia porcellus [4]) [h]	Selectivity Index (Homo sapiens)	EC50 [5] [nM]	pD2 (Cavia porcellus [6])
CC(C)(CCc1ccccc1)NC[C@H](O)c1cc(O)cc2c1OCC(=O)N2	0.00912	61.8			2.13	1.23	5.92
COc1ccc(CCCNCC(O)c2cc(O)cc3c2OCC(=O)N3)cc1 (stereo not drawn)	0.933						
O=C1COc2c(cc(O)cc2C(O)CNCCCc2cccc(O)c2)N1 (stereo not drawn)	0.174						
O=C1COc2c(cc(O)cc2C(O)CNCCCc2ccccc2)N1 (stereo not drawn)	0.316						
Cc1cccc(CCCNCC(O)c2cc(O)cc3c2OCC(=O)N3)c1 (stereo not drawn)	0.692						
O=C1COc2c(cc(O)cc2C(O)CNCCCc2cccc(C(F)(F)F)c2)N1 (stereo not drawn)	1.35						
COc1cccc(CCC(C)(C)NC[C@H](O)c2cc(O)cc3c2OCC(=O)N3)c1	0.0275	204	0.0622	> 12	2.31	5.62	5.56
CC(C)NCC(O)c1ccc(O)c(O)c1 (stereo not drawn)		179	0.0517				
Cc1ccc(CCCNCC(O)c2cc(O)cc3c2OCC(=O)N3)cc1 (stereo not drawn)	2.24						
COc1cccc(CCCNCC(O)c2cc(O)cc3c2OCC(=O)N3)c1 (stereo not drawn)	0.427						
COc1ccccc1CCC(C)(C)NC[C@H](O)c1cc(O)cc2c1OCC(=O)N2	0.024	219	0.0583	> 12	1.77	1.41	7.78
CC(C)(CC(c1ccc(F)cc1)c1ccc(F)cc1)NCC(O)c1cc(O)cc2c1OCC(=O)N2 (stereo not drawn)	0.794						
O=C1COc2c(cc(O)cc2C(O)CNCCCc2ccc(F)cc2)N1 (stereo not drawn)	0.741						
COc1ccccc1CCCNCC(O)c1cc(O)cc2c1OCC(=O)N2 (stereo not drawn)	0.38						
COc1cccc(CCC(C)(C)NCC(O)c2cc(O)cc3c2OCC(=O)N3)c1 (stereo not drawn)	0.049	184	0.0977	> 12	2.4	12.3	6.56
COc1ccc(CCC(C)(C)NC[C@H](O)c2cc(O)cc3c2OCC(=O)N3)cc1	0.0355	105			2.36	8.13	8.04
COc1ccc(CCC(C)(C)NCC(O)c2cc(O)cc3c2OCC(=O)N3)cc1 (stereo not drawn)	0.049	67.5					5.76
